# Tests used:
# D(1A) dopamine receptor [1] = molecular target: T1, D(1A) dopamine receptor (Homo sapiens, UniProt P21728); type: functional, cell-based
# Thromboxane A2 receptor = molecular target: T2, Thromboxane A2 receptor (Homo sapiens, UniProt P21731); type: functional
# T2 sequence (P21731 whole entry): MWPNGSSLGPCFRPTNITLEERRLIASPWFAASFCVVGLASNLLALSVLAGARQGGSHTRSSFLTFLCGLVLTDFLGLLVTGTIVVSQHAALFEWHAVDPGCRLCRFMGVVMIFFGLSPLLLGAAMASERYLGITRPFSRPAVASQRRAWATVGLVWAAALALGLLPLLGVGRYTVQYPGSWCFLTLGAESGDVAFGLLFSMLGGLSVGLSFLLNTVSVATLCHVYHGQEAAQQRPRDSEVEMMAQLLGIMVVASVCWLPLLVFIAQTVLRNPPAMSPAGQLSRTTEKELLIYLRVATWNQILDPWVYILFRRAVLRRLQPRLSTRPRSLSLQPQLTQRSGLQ
# Glucagon receptor = Glucagon receptor (Homo sapiens, UniProt P47871)
# [2] = molecular target: T3, Neuropeptide Y receptor type 2 (Homo sapiens, UniProt P49146)
# T3 sequence (P49146 whole entry): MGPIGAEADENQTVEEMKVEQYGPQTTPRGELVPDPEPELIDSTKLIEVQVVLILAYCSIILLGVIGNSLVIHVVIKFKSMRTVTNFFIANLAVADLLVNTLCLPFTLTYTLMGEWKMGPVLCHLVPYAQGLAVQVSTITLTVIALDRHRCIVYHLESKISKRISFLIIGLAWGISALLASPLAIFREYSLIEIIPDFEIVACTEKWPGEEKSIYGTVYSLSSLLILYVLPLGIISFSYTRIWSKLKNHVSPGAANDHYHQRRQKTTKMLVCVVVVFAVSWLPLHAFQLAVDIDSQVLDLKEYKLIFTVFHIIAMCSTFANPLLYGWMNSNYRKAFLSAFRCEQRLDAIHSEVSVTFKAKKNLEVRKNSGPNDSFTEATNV
# B1 bradykinin receptor = molecular target: T4, B1 bradykinin receptor (Homo sapiens, UniProt P46663)
# T4 sequence (P46663 whole entry): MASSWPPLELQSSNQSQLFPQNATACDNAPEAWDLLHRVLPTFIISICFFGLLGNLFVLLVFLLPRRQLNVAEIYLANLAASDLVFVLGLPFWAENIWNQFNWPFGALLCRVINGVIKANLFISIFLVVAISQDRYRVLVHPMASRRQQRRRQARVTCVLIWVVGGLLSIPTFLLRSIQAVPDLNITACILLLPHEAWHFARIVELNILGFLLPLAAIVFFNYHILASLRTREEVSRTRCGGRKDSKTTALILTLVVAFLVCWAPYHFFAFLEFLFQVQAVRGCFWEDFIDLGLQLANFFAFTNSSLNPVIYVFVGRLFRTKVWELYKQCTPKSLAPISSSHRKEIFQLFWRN
# [3] = molecular target: T5, Corticotropin-releasing factor receptor 1 (Homo sapiens, UniProt P34998)
# T5 sequence (P34998 whole entry): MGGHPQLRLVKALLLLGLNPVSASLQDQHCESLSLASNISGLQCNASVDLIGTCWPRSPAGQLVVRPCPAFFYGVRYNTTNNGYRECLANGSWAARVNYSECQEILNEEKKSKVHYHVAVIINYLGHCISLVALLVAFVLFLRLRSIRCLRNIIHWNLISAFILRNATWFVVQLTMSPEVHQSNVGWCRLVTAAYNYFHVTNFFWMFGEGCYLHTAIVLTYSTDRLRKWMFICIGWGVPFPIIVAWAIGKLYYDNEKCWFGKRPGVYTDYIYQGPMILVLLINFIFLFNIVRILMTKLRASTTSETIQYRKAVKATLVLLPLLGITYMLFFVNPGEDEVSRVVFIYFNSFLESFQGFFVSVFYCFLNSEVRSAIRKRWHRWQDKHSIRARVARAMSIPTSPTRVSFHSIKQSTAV
# D(4) dopamine receptor = molecular target: T6, D(4) dopamine receptor (Homo sapiens, UniProt P21917)
# T6 sequence (P21917 whole entry): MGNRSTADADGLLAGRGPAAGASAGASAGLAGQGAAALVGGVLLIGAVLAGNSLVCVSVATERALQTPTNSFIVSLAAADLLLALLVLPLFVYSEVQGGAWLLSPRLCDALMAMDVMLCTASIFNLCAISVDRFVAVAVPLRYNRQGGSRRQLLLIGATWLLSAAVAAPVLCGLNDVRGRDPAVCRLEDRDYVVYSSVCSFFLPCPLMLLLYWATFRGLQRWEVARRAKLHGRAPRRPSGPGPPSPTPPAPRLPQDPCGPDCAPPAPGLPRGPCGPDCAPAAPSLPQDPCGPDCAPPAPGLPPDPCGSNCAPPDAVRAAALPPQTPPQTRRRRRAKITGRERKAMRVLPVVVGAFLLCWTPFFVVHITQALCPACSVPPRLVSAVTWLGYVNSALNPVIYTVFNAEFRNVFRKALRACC
# [4] = molecular target: Neurotensin receptor type 1 (Homo sapiens, UniProt P30989)
# D(1A) dopamine receptor [5] = molecular target: T1, D(1A) dopamine receptor
# Note: assay procedure not described here.
# Sequence of Glucagon receptor (P47871 whole entry): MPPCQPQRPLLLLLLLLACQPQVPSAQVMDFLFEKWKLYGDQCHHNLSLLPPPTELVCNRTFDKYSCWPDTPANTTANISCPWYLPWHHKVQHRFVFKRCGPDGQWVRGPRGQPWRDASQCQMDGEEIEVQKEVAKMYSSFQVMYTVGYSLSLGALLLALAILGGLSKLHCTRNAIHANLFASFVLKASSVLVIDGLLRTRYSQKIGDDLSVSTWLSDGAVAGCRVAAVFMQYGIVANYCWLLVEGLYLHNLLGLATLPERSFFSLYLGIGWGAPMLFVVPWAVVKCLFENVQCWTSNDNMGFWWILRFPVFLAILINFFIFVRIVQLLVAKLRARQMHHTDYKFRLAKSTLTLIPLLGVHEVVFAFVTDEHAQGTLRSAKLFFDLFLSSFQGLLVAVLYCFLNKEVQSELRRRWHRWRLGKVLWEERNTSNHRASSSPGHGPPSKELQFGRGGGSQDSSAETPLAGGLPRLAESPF
# T1 sequence (P21728 whole entry): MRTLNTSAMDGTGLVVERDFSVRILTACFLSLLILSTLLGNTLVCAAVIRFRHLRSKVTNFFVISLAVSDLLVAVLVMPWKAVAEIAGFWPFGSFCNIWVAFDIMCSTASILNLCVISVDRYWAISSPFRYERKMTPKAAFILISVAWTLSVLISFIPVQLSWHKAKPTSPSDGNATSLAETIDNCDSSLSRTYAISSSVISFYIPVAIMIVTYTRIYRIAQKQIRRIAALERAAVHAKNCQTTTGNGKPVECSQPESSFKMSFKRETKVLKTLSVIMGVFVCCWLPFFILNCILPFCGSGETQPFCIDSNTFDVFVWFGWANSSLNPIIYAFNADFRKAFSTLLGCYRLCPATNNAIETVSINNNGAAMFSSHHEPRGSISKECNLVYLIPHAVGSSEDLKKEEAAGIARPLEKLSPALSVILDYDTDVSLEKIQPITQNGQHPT
# Sequence of Neurotensin receptor type 1 (P30989 whole entry): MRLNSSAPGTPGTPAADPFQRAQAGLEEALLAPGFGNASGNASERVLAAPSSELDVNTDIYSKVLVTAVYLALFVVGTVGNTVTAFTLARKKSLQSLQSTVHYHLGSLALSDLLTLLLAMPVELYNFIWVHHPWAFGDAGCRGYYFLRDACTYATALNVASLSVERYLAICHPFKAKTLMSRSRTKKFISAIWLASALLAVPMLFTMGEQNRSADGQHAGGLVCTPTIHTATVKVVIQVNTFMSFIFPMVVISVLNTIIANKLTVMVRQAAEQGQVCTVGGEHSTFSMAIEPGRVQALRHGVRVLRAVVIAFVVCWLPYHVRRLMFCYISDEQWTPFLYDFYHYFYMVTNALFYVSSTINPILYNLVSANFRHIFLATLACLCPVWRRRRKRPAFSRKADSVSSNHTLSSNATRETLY
SMILES,AC50 (D(1A) dopamine receptor [1]) [µM],AC50 (Thromboxane A2 receptor) [µM],AC50 (Glucagon receptor) [µM],AC50 [2] [µM],AC50 (B1 bradykinin receptor) [µM],AC50 [3] [µM],AC50 [4] [µM],other results
CN1CC2c3ccccc3Oc3ccc(Cl)cc3C2C1 (stereo not drawn) [ASENAPINE],0.244,,,,,,,
CN(C)CCC=C1c2ccccc2CCc2ccccc21 [AMITRIPTYLINE],,> 30,> 30,> 30,> 30,> 30,> 30,AC50 (D(4) dopamine receptor): 0.819 µM
CC#CC(=O)N1CCC[C@H]1c1nc(-c2ccc(C(=O)Nc3ccccn3)cc2)c2c(N)nccn12 [ACALABRUTINIB],,,,,,,,AC50 (D(1A) dopamine receptor [5]): > 30 µM
CCC[C@@]1(CCc2ccccc2)CC(O)=C([C@H](CC)c2cccc(NS(=O)(=O)c3ccc(C(F)(F)F)cn3)c2)C(=O)O1,14,,,,,,,
O=C1[C@@H]2[C@H]3CC[C@H](C3)[C@@H]2C(=O)N1C[C@@H]1CCCC[C@H]1CN1CCN(c2nsc3ccccc23)CC1 [LURASIDONE],,> 30,,,,,,
C[C@]12CCC(=O)C=C1CC[C@H]1[C@@H]3CC[C@](O)(C(=O)CO)[C@@]3(C)C[C@H](O)[C@@]12F [FLUDROCORTISONE],,,> 30,> 30,> 30,> 30,> 30,
CC(=O)Oc1ccccc1C(=O)O [ASPIRIN],,> 30,> 30,> 30,> 30,> 30,> 30,AC50 (D(4) dopamine receptor): > 10 µM
O=C(O)[C@@H](S)[C@@H](S)C(=O)O,,,,,,,,AC50 (D(1A) dopamine receptor [5]): > 30 µM
C[C@H](Nc1ncnc2[nH]cnc12)c1cc2cccc(Cl)c2c(=O)n1-c1ccccc1 [DUVELISIB],> 30,,,,,,,AC50 (D(1A) dopamine receptor [5]): > 30 µM
Cc1c(C)c2c(c(C)c1O)CCC(C)(COc1ccc(CC3SC(=O)NC3=O)cc1)O2 (stereo not drawn) [TROGLITAZONE],,,> 30,> 30,> 30,> 30,> 30,
CCOC(=O)[C@H](CCc1ccccc1)N[C@@H](C)C(=O)N1Cc2ccccc2C[C@H]1C(=O)O,,,> 30,> 30,> 30,> 30,> 30,AC50 (D(4) dopamine receptor): > 10 µM
c1cnc2cc3c(cc2n1)[C@@H]1CNC[C@H]3C1 [VARENICLINE],> 30,> 30,,,,,,
Cn1cnc2c(F)c(Nc3ccc(Br)cc3F)c(C(=O)NOCCO)cc21 [BINIMETINIB],> 30,> 30,,,,,,
CCCCCCO[C@@H](C)c1cccc(-c2csc(NC(=O)c3cc(Cl)c(/C=C(\C)C(=O)O)c(Cl)c3)n2)c1OC [LUSUTROMBOPAG],,,,,,,,AC50 (D(1A) dopamine receptor [5]): 5.53 µM
O=C(Cc1cccs1)N[C@@H]1C(=O)N2C(C(=O)[O-])=C(C[n+]3ccccc3)CS[C@H]12 [CEPHALORIDINE],,,,,,,,AC50 (D(1A) dopamine receptor [5]): > 30 µM
Nc1c2c(nc3ccccc13)CCCC2O (stereo not drawn) [VELNACRINE],> 30,> 30,,,,,,
C[C@H](CCC(=O)O)[C@H]1CC[C@H]2[C@@H]3[C@H](O)C[C@@H]4C[C@H](O)CC[C@]4(C)[C@H]3CC[C@]12C [CHENODIOL],> 30,,,,,,,
Nc1nnc(-c2cccc(Cl)c2Cl)c(N)n1 [LAMOTRIGINE],,,> 30,> 30,> 30,> 30,> 30,AC50 (D(4) dopamine receptor): > 10 µM
COc1cc2c(cc1OC)C1CC(=O)C(CC(C)C)CN1CC2 (stereo not drawn) [TETRABENAZINE],> 30,,,,,,,
C#CCN(C)Cc1ccccc1 [PARGYLINE],,,,,,,,AC50 (D(1A) dopamine receptor [5]): > 30 µM
CN(C)CCCC1(c2ccc(F)cc2)OCc2cc(C#N)ccc21 (stereo not drawn) [CITALOPRAM],,,> 30,> 30,> 30,> 30,> 30,AC50 (D(4) dopamine receptor): > 10 µM
NCC1(CC(=O)O)CCCCC1 [GABAPENTIN],> 30,> 30,> 30,> 30,> 30,> 30,> 30,AC50 (D(4) dopamine receptor): > 10 µM
C[C@@H](O)[C@H]1C(=O)N2C(C(=O)O)=C(SCCN=CN)C[C@H]12 [IMIPENEM ANHYDROUS],> 300,> 300,,,,,,
CO[C@@H]1[C@@H](OC(N)=O)[C@@H](O)[C@H](Oc2ccc3c(O)c(NC(=O)c4ccc(O)c(CC=C(C)C)c4)c(=O)oc3c2C)OC1(C)C [NOVOBIOCIN],> 30,> 30,,,,,,
OCCOCCN1CCN(C(c2ccccc2)c2ccc(Cl)cc2)CC1 (stereo not drawn) [HYDROXYZINE],,,> 30,> 30,> 30,> 30,> 30,AC50 (D(4) dopamine receptor): 8.54 µM

# From ChEMBL document CHEMBL5291721, “A preclinical secondary pharmacology resource illuminates target-adverse drug reaction associations of marketed drugs” (Nat Commun, 2023)
